This test addresses T1, IDO (Homo sapiens, UniProt P14902).
T1 construct: endogenous in cells; host or cells: HeLa cells stimulated with recombinant human interferon-gamma
Description: IDO Cell-Based NEK Green Assay (NFK Green, N-formyl kynurenine level). The note with it: Hela cells, 1 mM L-Tryptophan, 100 ng/mL recombinant human interferon-gamma, 2 days, NFK Green fluorescence. How it is done:
IDO Cell-Based NEK Green Assay
Materials: RPMI 1640 (phenol red free) (Invitrogen Cat. No. 11835030), Fetal Bovine Serum (Invitrogen Cat. No. 10099141), Penicillin-Streptomycin (Invitrogen Gibco Cat. No. 15140-122), Cellular assay kit (NTRC, Cat. No. NTRC-GSCell-1K), DMSO (Sigma, Cat. No. D2650), 384 wells_compound plate (Greiner, Cat. No. 781280), 384 wells_assay plate (Greiner, Cat. No. 781091)
The concentrations of test compounds varied from 5 μM to 0.76 nM with 3-fold dilution, 10 points, in duplicates.
Hela cells were seeded at 8,000 cells per well with RPMI/phenol red free media containing 10% FBS in a 384-well tissue culture plate. Mixture of compounds and 1 mM L-Tryptophan were added to cells; and then the recombinant human interferon-gamma was added at the final concentration of 100 ng/mL to activate IDO signaling. The cells were incubated for 2 days in 37° C. incubator with 5% CO2. After that, NFK Green was used to detect the N-formyl kynurenine level by following the commercial kit instruction. The fluorescent signal was measured by Envision plate Reader (excitation, 400/25; emission, 510/20). Curves are fit by XLFIT5 as % inhibition vs. log [compound concentration] using a 4 parameters logistic model 205.
Select compounds prepared as described above were assayed according to the biological procedures described herein.
T1 sequence (P14902 whole entry): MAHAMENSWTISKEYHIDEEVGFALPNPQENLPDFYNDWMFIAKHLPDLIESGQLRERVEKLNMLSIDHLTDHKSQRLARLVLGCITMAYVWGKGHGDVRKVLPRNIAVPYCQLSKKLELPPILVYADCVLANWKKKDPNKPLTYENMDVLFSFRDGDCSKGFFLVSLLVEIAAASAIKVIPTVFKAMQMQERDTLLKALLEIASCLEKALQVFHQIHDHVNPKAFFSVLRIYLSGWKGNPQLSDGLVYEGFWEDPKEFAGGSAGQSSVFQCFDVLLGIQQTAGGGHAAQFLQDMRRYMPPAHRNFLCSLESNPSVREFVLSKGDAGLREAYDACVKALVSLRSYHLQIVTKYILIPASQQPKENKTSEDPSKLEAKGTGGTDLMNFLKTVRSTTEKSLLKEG
Take `CN=S(=O)(CCCNc1nonc1/C(=N/O)Nc1ccc(F)c(Br)c1)NC` (centres unmarked) [Example 17, (Z)—N-(3-bromo-4-fluorophenyl)-4-((3-(N,N′-dimethylsulfamidimidoyl)propyl)amino)-N′-hydroxy-1,2,5-oxadiazole-3-carboximidamide]: the IC50 was determined as 10.6 nM.

Turning to `CN=S(=O)(CCCNc1nonc1/C(=N/O)Nc1ccc(F)c(Cl)c1)NC` (centres unmarked) [Example 18, (Z)—N-(3-chloro-4-fluorophenyl)-4-((3-(N,N′-dimethylsulfamidimidoyl)propyl)amino)-N′-hydroxy-1,2,5-oxadiazole-3-carboximidamide], the IC50 is 23.2 nM.

With `CS(=N)(=N)CCNc1nonc1/C(=N/O)Nc1ccc(F)c(Br)c1` [Example 20, (Z)—N-(3-bromo-4-fluorophenyl)-4-({2-[diimino(methyl)-λ^6-sulfanyl]ethyl}amino)-N′-hydroxy-1,2,5-oxadiazole-3-carboximidamide], the 50% inhibitory concentration (IC50) is 12.2 nM.

As for `C#Cc1cc(N/C(=N\O)c2nonc2NCCNS(=N)(=O)CC)ccc1F` (centres unmarked) [Example 21, (Z)-4-((2-(ethylsulfonoamidimidamido)ethyl)amino)-N-(3-ethynyl-4-fluorophenyl)-N′-hydroxy-1,2,5-oxadiazole-3-carboximidamide], the IC50 is 16.3 nM.

With `CN=S(C)(=O)NCCNc1nonc1/C(=N/O)Nc1ccc(F)c(Cl)c1` (centres unmarked) [Example 22, (Z)-N-(3-chloro-4-fluorophenyl)-N′-hydroxy-4-((2-(N′-methylmethylsulfonoamidimidamido)ethyl)amino)-1,2,5-oxadiazole-3-carboximidamide], the half-maximal inhibitory concentration (IC50) worked out at 27.5 nM.

With `CCS(=O)(=NC)NCCNc1nonc1/C(=N/O)Nc1ccc(F)c(Cl)c1` (centres unmarked) [Example 23, (Z)-N-(3-chloro-4-fluorophenyl)-N′-hydroxy-4-((2-(N′-methylethylsulfonoamidimidamido)ethyl)amino)-1,2,5-oxadiazole-3-carboximidamide], the 50% inhibitory concentration (IC50) stood at 33.2 nM.

Consider `CCS(=N)(=O)NCCCNc1nonc1/C(=N/O)Nc1ccc(F)c(Br)c1` (centres unmarked) [Example 24, (Z)-N-(3-bromo-4-fluorophenyl)-4-[(3-ethanesulfonoimidamidopropyl)amino]-N′-hydroxy-1,2,5-oxadiazole-3-carboximidamide], for which the IC50 was found to be 8.2 nM.

For the molecule `CCS(=N)(=O)NCCNc1nonc1/C(=N/O)Nc1ccc(F)c(Cl)c1` (centres unmarked) [Example 25, (Z)-N-(3-chloro-4-fluorophenyl)-4-((2-(ethylsulfonoamidimidamido)ethyl)amino)-N′-hydroxy-1,2,5-oxadiazole-3-carboximidamide], the IC50 was determined as 17.5 nM.

As to `CS(=N)(=O)NCCCNc1nonc1/C(=N/O)Nc1ccc(F)c(Cl)c1` (centres unmarked) [Example 26, (Z)-N-(3-chloro-4-fluorophenyl)-N′-hydroxy-4-[(3-methanesulfonoimidamidopropyl)amino]-1,2,5-oxadiazole-3-carboximidamide], the IC50 amounted to 14 nM.

As for `CCS(=N)(=O)NCCCNc1nonc1/C(=N/O)Nc1ccc(F)c(Cl)c1` (centres unmarked) [Example 27, (Z)-N-(3-chloro-4-fluorophenyl)-4-[(3-ethanesulfonoimidamidopropyl)amino]-N′-hydroxy-1,2,5-oxadiazole-3-carboximidamide], the half-inhibitory concentration (IC50) stood at 16.5 nM.

Turning to `C#Cc1cc(N/C(=N\O)c2nonc2NCCN=S(C)(C)=O)ccc1F` [Example 29, (Z)-4-((2-((dimethyl(oxo)-λ^6-sulfanylidene)amino)ethyl)amino)-N-(3-ethynyl-4-fluoro-phenyl)-N′-hydroxy-1,2,5-oxadiazole-3-carboximidamide], the IC50 was determined as 26.5 nM.

Take `CS(C)(=O)=NCCCNc1nonc1/C(=N/O)Nc1ccc(F)c(Br)c1` [Example 30, (Z)-N-(3-bromo-4-fluorophenyl)-4-((3-((dimethyl(oxo)-λ^6-sulfanylidene)amino)propyl)amino)-N′-hydroxy-1,2,5-oxadiazole-3-carboximidamide]: the IC50 was found to be 63.6 nM.

Turning to `CS(C)(=O)=NCCCNc1nonc1/C(=N/O)Nc1ccc(F)c(Cl)c1` [Example 31, (Z)-N-(3-chloro-4-fluorophenyl)-4-((3-((dimethyl(oxo)-λ^6-sulfanylidene)amino)propyl)amino)-N′-hydroxy-1,2,5-oxadiazole-3-carboximidamide], the concentration for half-maximal inhibition (IC50) amounted to 112 nM.

For `O=S1(=NCCCNc2nonc2/C(=N/O)Nc2ccc(F)c(Cl)c2)CCC1` [Example 32, (Z)-N-(3-chloro-4-fluorophenyl)-N′-hydroxy-4-((3-((1-oxido-1λ^6-thietan-1-ylidene)amino)propyl)amino)-1,2,5-oxadiazole-3-carboximidamide], the half-inhibitory concentration (IC50) is 64.4 nM.

As for `CCS(=O)(=NC)NCCNc1nonc1/C(=N/O)Nc1ccc(F)c(Br)c1` (centres unmarked) [Example 33, (Z)-N-(3-bromo-4-fluorophenyl)-N′-hydroxy-4-((2-(N′-methylethylsulfonoamidimidamido)ethyl)amino)-1,2,5-oxadiazole-3-carboximidamide], the IC50 came to 23.9 nM.

As for `CCS(=N)(=N)CCNc1nonc1/C(=N/O)Nc1ccc(F)c(Br)c1` [Example 34, (Z)-N-(3-bromo-4-fluorophenyl)-4-{[2-(ethyldiimino-λ^6-sulfanyl)ethyl]amino}-N′-hydroxy-1,2,5-oxadiazole-3-carboximidamide], the IC50 was found to be 9.7 nM.

Take `CS(=N)(=N)CCNc1nonc1/C(=N/O)Nc1ccc(F)c(Cl)c1` [Example 35, (Z)-N-(3-chloro-4-fluorophenyl)-4-({2-[diimino(methyl)-λ^6-sulfanyl]ethyl}amino)-N′-hydroxy-1,2,5-oxadiazole-3-carboximidamide]: the IC50 worked out at 33.7 nM.

Take `CS(=N)(=N)CCCNc1nonc1/C(=N/O)Nc1ccc(F)c(Br)c1` [Example 36, (Z)-N-(3-bromo-4-fluorophenyl)-4-({3-[diimino(methyl)-λ^6-sulfanyl]propyl}amino)-N′-hydroxy-1,2,5-oxadiazole-3-carboximidamide]: the IC50 is 46.7 nM.

Consider `CCS(=N)(=N)CCCNc1nonc1/C(=N/O)Nc1ccc(F)c(Br)c1` [Example 37, (Z)-N-(3-bromo-4-fluorophenyl)-4-{[3-(ethyldiimino-λ^6-sulfanyl)propyl]amino}-N′-hydroxy-1,2,5-oxadiazole-3-carboximidamide], for which the IC50 worked out at 20.5 nM.

Take `CC(C)S(=N)(=N)CCNc1nonc1/C(=N/O)Nc1ccc(F)c(Br)c1` [Example 38, (Z)-N-(3-bromo-4-fluorophenyl)-4-({2-[diimino(propan-2-yl)-λ^6-sulfanyl]ethyl}amino)-N′-hydroxy-1,2,5-oxadiazole-3-carboximidamide]: the IC50 came out at 13.3 nM.

For the molecule `N=S(=N)(CCNc1nonc1/C(=N/O)Nc1ccc(F)c(Br)c1)C1CC1` [Example 39, (Z)-N-(3-bromo-4-fluorophenyl)-4-{[2-(cyclopropyldiimino-λ^6-sulfanyl)ethyl]amino}-N′-hydroxy-1,2,5-oxadiazole-3-carboximidamide], the IC50 was found to be 52.3 nM.

For `N=S(=N)(CCO)CCNc1nonc1/C(=N/O)Nc1ccc(F)c(Br)c1` [Example 40, (Z)-N-(3-bromo-4-fluorophenyl)-N′-hydroxy-4-({2-[(2-hydroxyethyl)diimino-λ^6-sulfanyl]ethyl}amino)-1,2,5-oxadiazole-3-carboximidamide], the IC50 amounted to 39.1 nM.

In the case of `COCCS(=N)(=N)CCNc1nonc1/C(=N/O)Nc1ccc(F)c(Br)c1` [Example 41, (Z)-N-(3-bromo-4-fluorophenyl)-4-({2-[diimino(2-methoxyethyl)-λ^6-sulfanyl]ethyl}amino)-N′-hydroxy-1,2,5-oxadiazole-3-carboximidamide], the half-maximal inhibitory concentration (IC50) is 20.9 nM.

The values are drawn from US11168078B2, “Sulfoximine, sulfonimidamide, sulfondiimine and diimidosulfonamide compounds as inhibitors of indoleamine 2,3-dioxygenase” (Shanghai Fochon Pharmaceutical Co., Ltd., priority 2016, dated 2021).
